Earlier results in patent US20120219597A1, “PHARMACEUTICAL FORMULATIONS FOR INDIBULIN” (ZIOPHARM Oncology, Inc., priority 2009, published 2012).

Columns and labels:
[1] = in water, methanol, ethanol or 2-propanol
[2] = pure indibulin

O=C(Nc1ccncc1)C(=O)c1cn(Cc2ccc(Cl)cc2)c2ccccc12 [indibulin]
solubility [1]: practically insoluble
bioavailability [2]: low
